Data set [1] deals with Plasmodium falciparum. The data set can be described thus: MMV: Inhibition of Plasmodium falciparum 3D7 (EC50). Format: functional, organism-based.
Data set [2] can be described thus: MMV: Cytotoxicity against human fibroblasts (MRC-5) cells. Particulars: MRC-5 cells (human fibroblasts).
Data set [3] has as its system Trypanosoma brucei rhodesiense. The data set can be described thus: MMV: Inhibition of Trypanosoma brucei rhodesiense (STIB 900) (HAT in vitro). Format: functional, organism-based.
For data set [4], the system named is Trypanosoma brucei brucei. Kind of data set: MMV: Inhibition of Trypanosoma brucei brucei (Squib 427) (HAT in vitro). Format: functional, organism-based.
For data set [5], the system named is Leishmania infantum. Kind of data set: MMV: Inhibition of Leishmania infantum (MHOM/MA/BE/67) in vitro. Type of data set: functional, organism-based.
For data set [6], the system named is Plasmodium falciparum. Kind of data set: MMV: Inhibition of Plasmodium falciparum K1 (EC50). Type of data set: functional, organism-based.
In data set [7] the test system is Trypanosoma cruzi. Kind of data set: MMV: Inhibition of Trypanosoma cruzi (Tulahuen C4 LacZ) (Chagas in vitro). Type of data set: functional, organism-based.
In data set [8] the test system is Plasmodium falciparum. The data set can be described thus: MMV: Inhibition of Plasmodium falciparum 3D7 at 5uM compound concentration. Format: functional.

Turning to `CSC1=NC(=Nc2c(C)cccc2C)C2(CCC(C(C)(C)C)CC2)N1c1ccc(Cl)cc1` (stereo not given), the figures for the EC50 in data set [1] and in data set [6] were 0.135 µM and 0.172 µM, respectively. The IC50 (usually the concentration that inhibits the measured activity by half) in data set [2] is greater than 32 µM; in data set [3], 15.3 µM; in data set [4], 16.1 µM; in data set [5], 16.2 µM; in data set [7], 15.4 µM. Besides, the inhibition (as a rule, the relative decrease from the control value, in per cent) at 5 µM in data set [8] amounted to 96%.

As for `Oc1ccccc1CN1CCC2(CCCN(Cc3ccccc3F)C2)C1` (stereo not given), the EC50 – broadly, the concentration at which the effect is half-maximal – turned out to be 0.548 µM in data set [1] and 0.268 µM in data set [6]. Besides, the IC50 is greater than 32 µM in data set [2]; 15.8 µM in data set [3]; 14.8 µM in data set [4]; 16 µM in data set [5]; 14 µM in data set [7]. For the same compound, in data set [8], the inhibition at 5 µM worked out at 98%.

Consider `COc1cccc(O)c1CN1CCC2(CCCN(Cc3ccc(F)cc3)C2)C1` (stereo not given), for which the values for the EC50 in data set [1] and in data set [6] were 0.53 µM and 0.375 µM, respectively. In addition, the IC50 in data set [2] is greater than 32 µM; in data set [3] it was 1.85 µM; in data set [4] it was 4.23 µM; in data set [5] it was 10.1 µM; in data set [7], 12.3 µM. This compound had an inhibition at 5 µM in data set [8] of 95%.

As to `Cc1ccc(N2C(=O)C3C(C2=O)C2(c4ccccc4)C(=O)C3(c3ccccc3)C(c3ccccc3)=C2c2ccccc2)cc1` (stereo not given), the values for the EC50 in data set [1] and in data set [6] were 0.282 µM and 0.396 µM, respectively. Further, the IC50 in data set [2], in data set [3], in data set [4], in data set [5] and in data set [7] was greater than 32 µM in each case. For the same compound, the inhibition at 5 µM in data set [8] worked out at 98%.

Take `COc1ccc(C(=O)NC(c2ccc(Cl)cc2Cl)c2cc(Cl)c3cccnc3c2O)cc1` (stereo not given): the EC50 was 0.513 µM in data set [1] and 0.525 µM in data set [6]. For the same compound, the 50% inhibitory concentration (IC50) came to 7.79 µM in data set [2]; 4.09 µM in data set [3]; 3.94 µM in data set [4]; 4.76 µM in data set [5]; 3.85 µM in data set [7]. Moreover, the inhibition at 5 µM in data set [8] was determined as 96%.

For `O=C(NC(c1ccccc1)c1ccc2cccnc2c1O)c1ccccc1` (stereo not given), the EC50 in data set [1] came to 1.17 µM; in data set [6], 1.45 µM. The IC50 in data set [2] was 11.8 µM; in data set [3] it was less than 0.125 µM; in data set [4], less than 0.125 µM; in data set [5], 16.6 µM; in data set [7], less than 0.125 µM. Moreover, at 5 µM the inhibition in data set [8] was 95%.

For `COc1ccc(C2=C(c3ccc(OC)cc3)C3(c4ccccc4)C(=O)C2(c2ccccc2)C2C(=O)N(c4ccc(C)cc4)C(=O)C23)cc1` (stereo not given), the EC50 in data set [1] was determined as 0.148 µM; in data set [6], 0.188 µM. Moreover, the IC50 in data set [2], in data set [3], in data set [4], in data set [5] and in data set [7] was greater than 32 µM each time. Besides, the inhibition at 5 µM in data set [8] amounted to 98%.

As to `COc1ccc(CNC2CCN(c3ccc(NC(=O)c4cccc(Cl)c4)cc3)CC2)cc1OC`, the figures for the EC50 in data set [1] and in data set [6] were 0.663 µM and 1.61 µM, respectively. For the same compound, the IC50 in data set [2] was greater than 32 µM; in data set [3], 3.8 µM; in data set [4], 3.09 µM; in data set [5], 6.35 µM; in data set [7], 15.4 µM. Moreover, at 5 µM the inhibition in data set [8] was 97%.

As to `OC(Cn1nnc2ccccc21)Cn1c2ccc(Br)cc2c2cc(Br)ccc21` (stereo not given), the half-maximal effective concentration (EC50) worked out at 1.26 µM in data set [1] and 1.23 µM in data set [6]. Further, the IC50 in data set [2], in data set [3], in data set [4], in data set [5] and in data set [7] was greater than 32 µM in each case. In data set [8], this compound registered an inhibition at 5 µM of 98%.

Regarding `CCCCCCc1cc2cc(-c3nc4ccccc4[nH]3)c(=Nc3ccccc3C)oc2cc1O`, the concentration for a half-maximal effect (EC50) was 0.551 µM in data set [1] and 0.149 µM in data set [6]. Further, the 50% inhibitory concentration (IC50) in data set [2] was greater than 32 µM; in data set [3], 12.8 µM; in data set [4], 17 µM; in data set [5], greater than 32 µM; in data set [7] it was greater than 32 µM. In addition, in data set [8], the inhibition at 5 µM was 96%.

(Values after ChEMBL document CHEMBL2028040, “Malaria Box”.)
